Measured values published in the supplement of paper PMC11061612.

What was measured:
Test in all cases: Bliss excess, mean over the matrix (fraction); higher = more synergy
[1] = system: 8505C (Thyroid Gland Carcinoma)
Outline: (§1)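 Bliss excess equals the observed combination effect minus the expected value EA + EB − EA·EB, where EA and EB are the effects of each agent alone. Combination Emax is the second-highest inhibition within the matrix. Inhibition was scaled from CellTiter-Glo 2.0 luminescence, with 0 set by vehicle wells and 1 by blank wells, after 72 hours of two-drug dosing of cells plated in 1536-well plates.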

[2] = system: VMRC-RCZ (Kidney Carcinoma)
Outline: as §1

[3] = system: ESO51 (Esophageal Adenocarcinoma)
Outline: as §1

[4] = system: T-T (Esophageal Squamous Cell Carcinoma)
Outline: as §1

[5] = system: CW-2 (Colorectal Carcinoma)
Outline: as §1

[6] = system: RPMI-8226 (Plasma Cell Myeloma)
Outline: as §1

[7] = system: DMS-114 (Small Cell Lung Carcinoma)
Outline: as §1

[8] = system: SK-GT-2 (Gastric Carcinoma)
Outline: as §1

[9] = system: NCI-H520 (Squamous Cell Lung Carcinoma)
Outline: as §1

[10] = system: SU-DHL-5 (B-Cell Non-Hodgkin's Lymphoma)
Outline: as §1

[11] = system: SK-GT-4 (Esophageal Adenocarcinoma)
Outline: as §1

[12] = system: KU812 (Chronic Myelogenous Leukemia)
Outline: as §1

[13] = system: COR-L279 (Small Cell Lung Carcinoma)
Outline: as §1

[14] = system: NCI-H3122 (Lung Adenocarcinoma)
Outline: as §1

RD (Rhabdomyosarcoma) = system: RD (Rhabdomyosarcoma)
Outline: as §1

[15] = system: HCC1419 (Breast Carcinoma)
Outline: as §1

NCI-H2731 (Mesothelioma) = system: NCI-H2731 (Mesothelioma)
Outline: as §1

[16] = system: NCI-H661 (Non-Small Cell Lung Carcinoma)
Outline: as §1

[17] = system: SNU-398 (Hepatocellular Carcinoma)
Outline: as §1

[18] = system: KMS-12-BM (Plasma Cell Myeloma)
Outline: as §1

Work on `CN(CCO)CC[C@H](CSc1ccccc1)Nc1ccc(S(=O)(=O)NC(=O)c2ccc(N3CCC([C@@H](O)c4ccccc4-c4ccc(Cl)cc4)CC3)cc2)cc1S(=O)(=O)C(F)(F)F` [AZD4320] + CCN(CCO)CCCOc1ccc2c(Nc3cc(CC(=O)Nc4cccc(F)c4)[nH]n3)ncnc2c1 [AZD2811] (first compound max 1 µM, 7x7, partner max 1 µM) yielded a Bliss excess [1] of 0.0545, a Bliss excess [2] of -0.0508 and a Bliss excess [3] of 0.0025. For the same molecule, the Bliss excess [4] was 0.01, the Bliss excess [5] was -0.0073 and the Bliss excess [6] was 0.0003. The Bliss excess [7] was -0.0398, the Bliss excess [8] was 0.026 and the Bliss excess [9] was 0.0077. For the same molecule, the Bliss excess [10] was -0.143, the Bliss excess [11] was -0.0425 and the Bliss excess [12] was -0.0082. It also gave a Bliss excess [13] of 0.051, a Bliss excess [14] of -0.0456 and a Bliss excess (RD (Rhabdomyosarcoma)) of 0.0335. The Bliss excess [15] was -0.0664, the Bliss excess (NCI-H2731 (Mesothelioma)) was -0.005 and the Bliss excess [16] was -0.0322. For the same molecule, the Bliss excess [17] was -0.0135 and the Bliss excess [18] was 0.0816.

For `C[C@@H]1COCCN1c1cc(C2([S@](C)(=N)=O)CC2)nc(-c2ccnc3[nH]ccc23)n1` [AZD6738] + O=C(c1cc(Cc2n[nH]c(=O)c3ccccc23)ccc1F)N1CCN(C(=O)C2CC2)CC1 [Olaparib] (first compound max 10 µM, 7x7, partner max 10 µM), the Bliss excess [1] was 0.0004, the Bliss excess [2] was 0.0181 and the Bliss excess [3] was -0.102. For the same molecule, the Bliss excess [4] was -0.0237, the Bliss excess [5] was 0.0008 and the Bliss excess [6] was -0.0189. The Bliss excess [7] was 0.0254, the Bliss excess [8] was 0.0148 and the Bliss excess [9] was 0.044. For the same molecule, the Bliss excess [10] was 0.002, the Bliss excess [11] was -0.046 and the Bliss excess [12] was -0.0429. It also gave a Bliss excess [13] of 0.0042, a Bliss excess [14] of 0.0446 and a Bliss excess (RD (Rhabdomyosarcoma)) of 0.0312. It also gave a Bliss excess [15] of -0.0175, a Bliss excess (NCI-H2731 (Mesothelioma)) of -0.0266 and a Bliss excess [16] of 0.039. For the same molecule, the Bliss excess [17] was 0.0108 and the Bliss excess [18] was -0.0189.

Molecule `CC1(C)CCC(CN2CCN(c3ccc(C(=O)NS(=O)(=O)c4ccc(NCC5CCOCC5)c([N+](=O)[O-])c4)c(Oc4cnc5[nH]ccc5c4)c3)CC2)=C(c2ccc(Cl)cc2)C1` [Venetoclax] + CN(C)CCCOc1ccc(-c2ccc3ncc4c(c3c2)n(C2CCOCC2)c(=O)n4C)cn1 [AZD0156] (first compound max 1 µM, 7x7, partner max 1 µM) has a Bliss excess [1] of 0.0155, a Bliss excess [2] of -0.0492 and a Bliss excess [3] of -0.014. For the same molecule, the Bliss excess [4] was 0.0197, the Bliss excess [5] was 0.0285 and the Bliss excess [6] was 0.0405. It also gave a Bliss excess [7] of -0.0436, a Bliss excess [8] of 0.005 and a Bliss excess [9] of -0.048. It also gave a Bliss excess [10] of 0.0045, a Bliss excess [11] of -0.0544 and a Bliss excess [12] of -0.0404. For the same molecule, the Bliss excess [13] was 0.0043, the Bliss excess [14] was -0.0656 and the Bliss excess (RD (Rhabdomyosarcoma)) was -0.0332. For the same molecule, the Bliss excess [15] was -0.0156, the Bliss excess (NCI-H2731 (Mesothelioma)) was -0.029 and the Bliss excess [16] was 0.0037. The Bliss excess [17] was -0.0081 and the Bliss excess [18] was 0.0078.

Work on `Cc1c2c(nn1C)CSCc1cc(n(C)n1)CSc1cc(c3ccccc3c1)OCCCc1c(C(=O)O)n(C)c3c-2c(Cl)ccc13` [AZD5991] + C1CN(CCC1(C(=O)N[C@@H](CCO)C2=CC=C(C=C2)Cl)N)C3=NC=NC4=C3C=CN4 [Capivasertib] (first compound max 1 µM, 7x7, partner max 3 µM) yielded a Bliss excess [1] of -0.0111, a Bliss excess [2] of -0.0347 and a Bliss excess [3] of -0.0239. For the same molecule, the Bliss excess [4] was -0.0068, the Bliss excess [5] was 0.0132 and the Bliss excess [6] was 0.0079. For the same molecule, the Bliss excess [7] was 0.0696, the Bliss excess [8] was -0.0049 and the Bliss excess [9] was -0.0548. The Bliss excess [10] was 0.0095, the Bliss excess [11] was -0.0213 and the Bliss excess [12] was -0.0011. It also gave a Bliss excess [13] of 0.0417, a Bliss excess [14] of 0.0144 and a Bliss excess (RD (Rhabdomyosarcoma)) of 0.0465. It also gave a Bliss excess [15] of 0.0163, a Bliss excess (NCI-H2731 (Mesothelioma)) of -0.0722 and a Bliss excess [16] of 0.0375. The Bliss excess [17] was 0.034 and the Bliss excess [18] was 0.0127.

In the case of `COc1nnc2ccc(N3CCC(c4ccc(OCCN5CCN(C)C(=O)[C@H]5C)cc4)CC3)nn12` [AZD5153] + C[C@@H]1COCCN1C2=NC(=NC(=C2)C3(CC3)[S@](=N)(=O)C)C4=C5C=CNC5=NC=C4 [AZD6738] (first compound max 1 µM, 7x7, partner max 10 µM), the Bliss excess [1] is reported as 0.0751, the Bliss excess [2] is reported as 0.0926 and the Bliss excess [3] is reported as -0.0476. The Bliss excess [4] was -0.0179, the Bliss excess [5] was 0.0277 and the Bliss excess [6] was -0.0505. For the same molecule, the Bliss excess [7] was 0.0184, the Bliss excess [8] was 0.0773 and the Bliss excess [9] was 0.07. For the same molecule, the Bliss excess [10] was 0.0107, the Bliss excess [11] was -0.0252 and the Bliss excess [12] was -0.065. For the same molecule, the Bliss excess [13] was -0.0233, the Bliss excess [14] was -0.0382 and the Bliss excess (RD (Rhabdomyosarcoma)) was 0. For the same molecule, the Bliss excess [15] was -0.0517, the Bliss excess (NCI-H2731 (Mesothelioma)) was 0.0266 and the Bliss excess [16] was 0.0929. For the same molecule, the Bliss excess [17] was 0.0758 and the Bliss excess [18] was -0.0167.

Molecule `Cc1c2c(nn1C)CSCc1cc(n(C)n1)CSc1cc(c3ccccc3c1)OCCCc1c(C(=O)O)n(C)c3c-2c(Cl)ccc13` [AZD5991] + C=CCn1c(=O)c2cnc(Nc3ccc(N4CCN(C)CC4)cc3)nc2n1-c1cccc(C(C)(C)O)n1 [AZD1775] (first compound max 1 µM, partner max 1 µM) has a Bliss excess [1] of 0.0256, a Bliss excess [2] of 0.0212 and a Bliss excess [3] of 0.011. It also gave a Bliss excess [4] of 0.0282, a Bliss excess [5] of 0.04 and a Bliss excess [6] of -0.0006. For the same molecule, the Bliss excess [7] was -0.0295, the Bliss excess [8] was -0.0033 and the Bliss excess [9] was 0.0221. The Bliss excess [10] was 0.0028, the Bliss excess [11] was -0.0617 and the Bliss excess [12] was -0.0284. It also gave a Bliss excess [13] of -0.0632, a Bliss excess [14] of -0.058 and a Bliss excess (RD (Rhabdomyosarcoma)) of 0.04. It also gave a Bliss excess [15] of -0.106, a Bliss excess (NCI-H2731 (Mesothelioma)) of -0.0336 and a Bliss excess [16] of 0.0429. The Bliss excess [17] was 0.0149 and the Bliss excess [18] was -0.0082.

`CN(C)CCCOc1ccc(-c2ccc3ncc4c(c3c2)n(C2CCOCC2)c(=O)n4C)cn1` [AZD0156] + O=C(c1cc(Cc2n[nH]c(=O)c3ccccc23)ccc1F)N1CCN(C(=O)C2CC2)CC1 [Olaparib] (first compound max 3 µM, partner max 3 µM) showed a Bliss excess [1] of 0.066, a Bliss excess [2] of -0.0283 and a Bliss excess [3] of 0.0292. For the same molecule, the Bliss excess [4] was 0.122, the Bliss excess [5] was -0.0031 and the Bliss excess [6] was 0.103. It also gave a Bliss excess [7] of -0.0425, a Bliss excess [8] of 0.0292 and a Bliss excess [9] of 0.0671. The Bliss excess [10] was 0.197, the Bliss excess [11] was 0.0611 and the Bliss excess [12] was 0.264. The Bliss excess [13] was 0.0782, the Bliss excess [14] was -0.0062 and the Bliss excess (RD (Rhabdomyosarcoma)) was 0.0333. For the same molecule, the Bliss excess [15] was -0.0673, the Bliss excess (NCI-H2731 (Mesothelioma)) was 0.0068 and the Bliss excess [16] was 0.0145. The Bliss excess [17] was 0.0815 and the Bliss excess [18] was 0.0448.

Work on `CCN(CCO)CCCOc1ccc2c(Nc3cc(CC(=O)Nc4cccc(F)c4)[nH]n3)ncnc2c1` [AZD2811] + O=C(c1cc(Cc2n[nH]c(=O)c3ccccc23)ccc1F)N1CCN(C(=O)C2CC2)CC1 [Olaparib] (first compound max 1 µM, 7x7, partner max 10 µM) yielded a Bliss excess [1] of -0.0228, a Bliss excess [2] of -0.0325 and a Bliss excess [3] of -0.0379. For the same molecule, the Bliss excess [4] was -0.0073, the Bliss excess [5] was 0.0119 and the Bliss excess [6] was -0.0137. The Bliss excess [7] was -0.0127, the Bliss excess [8] was 0.0218 and the Bliss excess [9] was 0.041. For the same molecule, the Bliss excess [10] was -0.0466, the Bliss excess [11] was 0.0123 and the Bliss excess [12] was -0.0189. For the same molecule, the Bliss excess [13] was -0.0125, the Bliss excess [14] was 0.0018 and the Bliss excess (RD (Rhabdomyosarcoma)) was 0.0106. It also gave a Bliss excess [15] of -0.0532, a Bliss excess (NCI-H2731 (Mesothelioma)) of 0.0001 and a Bliss excess [16] of -0.0062. It also gave a Bliss excess [17] of -0.0223 and a Bliss excess [18] of 0.0456.

Work on `CN(CCO)CC[C@H](CSc1ccccc1)Nc1ccc(S(=O)(=O)NC(=O)c2ccc(N3CCC([C@@H](O)c4ccccc4-c4ccc(Cl)cc4)CC3)cc2)cc1S(=O)(=O)C(F)(F)F` [AZD4320] + C1CN(CCC1(C(=O)N[C@@H](CCO)C2=CC=C(C=C2)Cl)N)C3=NC=NC4=C3C=CN4 [Capivasertib] (first compound max 1 µM, 7x7, partner max 3 µM) yielded a Bliss excess [1] of -0.155, a Bliss excess [2] of -0.0429 and a Bliss excess [3] of -0.0434. For the same molecule, the Bliss excess [4] was -0.0171, the Bliss excess [5] was -0.0284 and the Bliss excess [6] was 0.0027. The Bliss excess [7] was -0.0066, the Bliss excess [8] was -0.0158 and the Bliss excess [9] was -0.0637. For the same molecule, the Bliss excess [10] was 0.0065, the Bliss excess [11] was -0.0345 and the Bliss excess [12] was 0.0154. The Bliss excess [13] was 0.0721, the Bliss excess [14] was -0.0613 and the Bliss excess (RD (Rhabdomyosarcoma)) was -0.0764. It also gave a Bliss excess [15] of 0.0421, a Bliss excess (NCI-H2731 (Mesothelioma)) of -0.0435 and a Bliss excess [16] of -0.0347. It also gave a Bliss excess [17] of -0.032 and a Bliss excess [18] of 0.0181.
